For one compound, Kd results are on record in publication PMC7675582, “Time-Dependent Fluorescence Spectroscopy to Quantify Complex Binding Interactions” (ACS Omega, 2020).

In the assay the target is T1, galectin-3 (Homo sapiens, UniProt P17931).
T1 construct: gene LGALS3; recombinant human galectin-3, GST-purified with the GST tag removed
The experiment in a line: intrinsic tryptophan fluorescence lifetime titration (direct waveform recording, excitation at […] nm), fit with n = […]. The assay is classed as binding.

T1 sequence (P17931 2-250): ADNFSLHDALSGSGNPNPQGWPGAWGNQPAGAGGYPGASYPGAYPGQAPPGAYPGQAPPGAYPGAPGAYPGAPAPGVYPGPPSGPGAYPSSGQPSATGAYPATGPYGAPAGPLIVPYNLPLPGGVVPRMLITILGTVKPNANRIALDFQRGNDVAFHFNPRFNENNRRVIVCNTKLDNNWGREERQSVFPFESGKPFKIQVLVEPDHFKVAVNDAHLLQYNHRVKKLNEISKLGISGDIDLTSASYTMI

In general, Kd refers to a measure of binding affinity in units of concentration. Low readings indicate a tighter complex, high ones a looser complex. Consider `COC1O[C@H](CO)[C@@H](O[C@@H]2O[C@H](CO)[C@H](O)[C@H](O)[C@H]2O)[C@H](O)[C@H]1O` (stereo partly shown) [methyllactose], for which the equilibrium dissociation constant (Kd) came out at 54 ± 10 µM.
